SMILES strings stand for the structures.

Here are results for 12 compounds from patent US7449470B2, “Substituted pyrimidines as ligands of adenosine receptors” (Universiteit Leiden, priority 2003, dated 2008).

The target in the assay is T1, human adenosine A1 receptor (Homo sapiens, UniProt P30542).
T1 construct: expressed in transfected cells; host or cells: CHO cells
T1 sequence (P30542 1-326): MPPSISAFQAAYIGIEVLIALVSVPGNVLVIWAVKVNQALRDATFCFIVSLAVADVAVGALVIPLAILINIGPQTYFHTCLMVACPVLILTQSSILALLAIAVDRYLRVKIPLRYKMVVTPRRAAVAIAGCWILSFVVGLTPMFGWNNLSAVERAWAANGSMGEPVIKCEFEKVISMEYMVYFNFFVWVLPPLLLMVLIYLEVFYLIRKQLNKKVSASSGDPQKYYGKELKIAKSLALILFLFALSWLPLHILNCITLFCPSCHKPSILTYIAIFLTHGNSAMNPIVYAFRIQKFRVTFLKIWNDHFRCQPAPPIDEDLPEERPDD
In words: Radioligand binding assay, displacement of [3H]DPCPX. Conditions: CHO cells expressing human adenosine A1 receptors; Ki ± SEM (n = 3); read-out: A1 Ki (displacement of specific [3H]DPCPX binding). As to the method: Radioligand Binding Studies [^3H]DPCPX was purchased from Amersham. All compounds made were tested in radioligand binding assays to determine their affinities at the human adenosine A1 receptor. The affinities at the A1 receptors were determined on CHO cells expressing the human receptors, using [^3H]DPCPX as the radioligand according to a previously described method.^9
Data Analysis Competition binding data were fit to a single-site binding model and plotted using the software package Prism (Graph Pad, San Diego, Calif., USA). The Cheng-Prusoff equation Ki=IC50/(1+[I]/Kd) was used to calculate Ki values, where Ki is the affinity constant for the competing ligand, [I] is the concentration of the free radioligand, and Kd is the affinity constant for the radioligand.
A general note: Displacement assays read how much labelled ligand stays bound in the presence of the test substance.
For the compound `O=C(Nc1cc(-c2ccccc2)nc(-c2ccccc2)n1)c1ccccc1` [Compound 13, N-(2,6-Diphenyl-pyrimidin-4-yl)-benzamide], the Ki was determined as 0.671 ± 0.113 µM. Consider `CC(=O)Nc1cc(-c2ccccc2)nc(-c2ccccc2)n1` [Compound 14, N-(2,6-Diphenyl-pyrimidin-4-yl)-acetamide], for which the Ki was 0.0375 ± 0.0081 µM. As for `CCC(=O)Nc1cc(-c2ccccc2)nc(-c2ccccc2)n1` [Compound 15, N-(2,6-Diphenyl-pyrimidin-4-yl)-propionamide], the Ki was found to be 0.0095 ± 0.0046 µM. Consider `CCCC(=O)Nc1cc(-c2ccccc2)nc(-c2ccccc2)n1` [Compound 16, N-(2,6-Diphenyl-pyrimidin-4-yl)-butyramide], for which the Ki was 0.0176 ± 0.0053 µM. `CC(C)CC(=O)Nc1cc(-c2ccccc2)nc(-c2ccccc2)n1` [Compound 18, N-(2,6-Diphenyl-pyrimidin-4-yl)-3-methyl-butyramide]: the Ki was determined as 0.0148 ± 0.0027 µM. As for `CCC(CC)C(=O)Nc1cc(-c2ccccc2)nc(-c2ccccc2)n1` [Compound 19, N-(2,6-Diphenyl-pyrimidin-4-yl)-2-ethyl-butyramide], the Ki turned out to be 0.00635 ± 0.0004 µM. Take `CCC(C)C(=O)Nc1cc(-c2ccccc2)nc(-c2ccccc2)n1` (stereo not drawn) [Compound 20, N-(2,6-Diphenyl-pyrimidin-4-yl)-2-methyl-butyramide]: the Ki turned out to be 0.00222 ± 0.0011 µM. For `CC(C)(C)C(=O)Nc1cc(-c2ccccc2)nc(-c2ccccc2)n1` [Compound 21, N-(2,6-Diphenyl-pyrimidin-4-yl)-2,2-dimethyl-propionamide], the Ki worked out at 0.0277 ± 0.0062 µM.

For the compound `CC(C)(C)CC(=O)Nc1cc(-c2ccccc2)nc(-c2ccccc2)n1` [Compound 22, N-(2,6-Diphenyl-pyrimidin-4-yl)-3,3-dimethyl-butyramide], the Ki worked out at 0.00875 ± 0.0041 µM. Turning to `O=C(Nc1cc(-c2ccccc2)nc(-c2ccccc2)n1)C1CCC1` [Compound 23, Cyclobutanecarboxylic acid (2,6-diphenyl-pyrimidin-4-yl)-amide], the Ki was determined as 0.00649 ± 0.0022 µM. `O=C(Nc1cc(-c2ccccc2)nc(-c2ccccc2)n1)C1CCCC1` [Compound 24, Cyclopentanecarboxylic acid (2,6-diphenyl-pyrimidin-4-yl)-amide]: the Ki came out at 0.00214 ± 7e-05 µM. For the compound `O=C(Nc1cc(-c2ccccc2)nc(-c2ccccc2)n1)C1CCCCC1` [Compound 25, Cyclohexanecarboxylic acid (2,6-diphenyl-pyrimidin-4-yl)-amide], the Ki turned out to be 0.0155 ± 0.0084 µM.

As a reminder, the Ki is the dissociation constant of the complex between target and ligand, obtained from inhibition or displacement.
